According to ChEMBL document CHEMBL4346757, “Synthesis and biological evaluation of 7-methoxy-1-(3,4,5-trimethoxyphenyl)-4,5-dihydro-2H-benzo[e]indazoles as new colchicine site inhibitors” (Bioorg Med Chem Lett, 2019):

What was measured:
NCI-H522 = assay: Growth inhibition of human NCI-H522 cells assessed as cell growth at 100 uM after 48 hrs by SRB assay relative to control; format: functional; details: NCI-H522, 48 h, read-out: Activity
T47D = assay: Growth inhibition of human T47D cells assessed as cell growth at 10 uM after 48 hrs by SRB assay relative to control; format: functional; details: read-out: Activity
UACC-257 = assay: Cytotoxicity against human UACC257 cells assessed as growth inhibition after 48 hrs by SRB assay; format: functional; details: UACC-257, 48 h
MCF7 = assay: Growth inhibition of human MCF7 cells assessed as cell growth at 1 uM after 48 hrs by SRB assay relative to control; format: functional; details: MCF7, 48 h, read-out: Activity
HOP-92 = assay: Growth inhibition of human HOP92 cells assessed as cell growth at 1 uM after 48 hrs by SRB assay relative to control; format: functional; details: HOP-92, 48 h, read-out: Activity
Malme-3M = assay: Growth inhibition of human MALME-3M cells assessed as cell growth at 10 uM after 48 hrs by SRB assay relative to control; format: functional; details: read-out: Activity
MDA-MB-231 [1] = assay: Growth inhibition of human MDA-MB-231/ATCC cells assessed as cell growth at 0.01 uM after 48 hrs by SRB assay relative to control; format: functional; details: MDA-MB-231, 48 h, read-out: Activity
SNB-19 = assay: Cytotoxicity against human SNB19 cells assessed as growth inhibition after 48 hrs by SRB assay; format: functional; details: SNB-19, 48 h
A498 = assay: Growth inhibition of human A498 cells assessed as cell growth at 10 uM after 48 hrs by SRB assay relative to control; format: functional; details: A498, 48 h, read-out: Activity
MDA-MB-468 = assay: Growth inhibition of human MDA-MB-468 cells assessed as cell growth at 10 uM after 48 hrs by SRB assay relative to control; format: functional; details: MDA-MB-468, 48 h, read-out: Activity
786-0 = assay: Growth inhibition of human 786-0 cells assessed as cell growth at 0.1 uM after 48 hrs by SRB assay relative to control; format: functional; details: 786-0, 48 h, read-out: Activity
MDA-MB-231 [2] = assay: Cytotoxicity against human MDA-MB-231/ATCC cells assessed as growth inhibition after 48 hrs by SRB assay; format: functional; details: MDA-MB-231, 48 h
SF-268 = assay: Growth inhibition of human SF268 cells assessed as cell growth at 0.1 uM after 48 hrs by SRB assay relative to control; format: functional; details: SF-268, 48 h, read-out: Activity
BT-549 = assay: Growth inhibition of human BT549 cells assessed as cell growth at 0.01 uM after 48 hrs by SRB assay relative to control; format: functional; details: BT-549, 48 h, read-out: Activity
UO-31 [3] = assay: Cytotoxicity against human UO31 cells assessed as growth inhibition after 48 hrs by SRB assay; format: functional; details: UO-31, 48 h
RXF 393 = assay: Growth inhibition of human RXF393 cells assessed as cell growth at 1 uM after 48 hrs by SRB assay relative to control; format: functional; details: RXF 393, 48 h, read-out: Activity
OVCAR-4 = assay: Growth inhibition of human OVCAR4 cells assessed as cell growth at 0.1 uM after 48 hrs by SRB assay relative to control; format: functional; details: OVCAR-4, 48 h, read-out: Activity
SR = assay: Growth inhibition of human SR cells assessed as cell growth at 1 uM after 48 hrs by SRB assay relative to control; format: functional; details: read-out: Activity
UO-31 [4] = assay: Growth inhibition of human UO31 cells assessed as cell growth at 100 uM after 48 hrs by SRB assay relative to control; format: functional; details: UO-31, 48 h, read-out: Activity
HCT-116 = assay: Growth inhibition of human HCT116 cells assessed as cell growth at 0.01 uM after 48 hrs by SRB assay relative to control; format: functional; details: HCT-116, 48 h, read-out: Activity
HT-29 = assay: Growth inhibition of human HT-29 cells assessed as cell growth at 0.1 uM after 48 hrs by SRB assay relative to control; format: functional; details: HT-29, 48 h, read-out: Activity
COLO 205 [5] = assay: Growth inhibition of human COLO205 cells assessed as cell growth at 100 uM after 48 hrs by SRB assay relative to control; format: functional; details: COLO 205, 48 h, read-out: Activity
ACHN = assay: Growth inhibition of human ACHN cells assessed as cell growth at 100 uM after 48 hrs by SRB assay relative to control; format: functional; details: read-out: Activity
SF-295 = assay: Cytotoxicity against human SF295 cells assessed as growth inhibition after 48 hrs by SRB assay; format: functional; details: SF-295, 48 h
MDA-MB-231 [6] = assay: Growth inhibition of human MDA-MB-231/ATCC cells assessed as cell growth at 10 uM after 48 hrs by SRB assay relative to control; format: functional; details: MDA-MB-231, 48 h, read-out: Activity
SK-MEL-2 = assay: Growth inhibition of human SK-MEL-2 cells assessed as cell growth at 0.1 uM after 48 hrs by SRB assay relative to control; format: functional; details: SK-MEL-2, 48 h, read-out: Activity
UO-31 [7] = assay: Growth inhibition of human UO31 cells assessed as cell growth at 0.1 uM after 48 hrs by SRB assay relative to control; format: functional; details: UO-31, 48 h, read-out: Activity
SK-MEL-5 = assay: Growth inhibition of human SK-MEL-5 cells assessed as cell growth at 0.1 uM after 48 hrs by SRB assay relative to control; format: functional; details: SK-MEL-5, 48 h, read-out: Activity
OVCAR-8 = assay: Growth inhibition of human OVCAR8 cells assessed as cell growth at 100 uM after 48 hrs by SRB assay relative to control; format: functional; details: OVCAR-8, 48 h, read-out: Activity
HCT-15 = assay: Growth inhibition of human HCT15 cells assessed as cell growth at 100 uM after 48 hrs by SRB assay relative to control; format: functional; details: HCT-15, 48 h, read-out: Activity
COLO 205 [8] = assay: Antiproliferative activity against human COLO205 cells assessed as reduction in cell viability by MTT assay; format: functional, cell-based
[9] = read-out: LC50 (the source's name)
[10] = read-out: pLC50 (the source's name) (converted)

COc1ccc2c(c1)CCc1n[nH]c(-c3cc(OC)c(OC)c(OC)c3)c1-2
growth at 100 µM (NCI-H522): -66%
growth at 10 µM (T47D): 35%
CC50 (UACC-257; [9]): > 100 µM
TGI (UACC-257; read-out: TGI): 34.2 µM
CC50 (UACC-257; [10]): > 100 µM
TGI (UACC-257; read-out: pTGI (converted)): 33.9 µM
growth at 1 µM (MCF7): 12%
growth at 1 µM (HOP-92): 27%
growth at 10 µM (Malme-3M): 41%
growth at 0.01 µM (MDA-MB-231 [1]): 34%
GI50 (SNB-19; read-out: GI50): < 0.01 µM
CC50 (SNB-19; [9]): > 100 µM
TGI (SNB-19; read-out: TGI): 46.3 µM
GI50 (SNB-19; read-out: pGI50 (converted)): < 0.01 µM
CC50 (SNB-19; [10]): > 100 µM
TGI (SNB-19; read-out: pTGI (converted)): 46.8 µM
growth at 10 µM (A498): -17%
growth at 10 µM (MDA-MB-468): -5%
growth at 0.1 µM (786-0): 17%
GI50 (MDA-MB-231 [2]; read-out: GI50): < 0.01 µM
LC50 (concentration killing 50% of cells) (MDA-MB-231 [2]; read-out: LC50): > 100 µM
TGI (MDA-MB-231 [2]; read-out: TGI): 44.8 µM
GI50 (MDA-MB-231 [2]; read-out: pGI50 (converted)): < 0.01 µM
LC50 (concentration killing 50% of cells) (MDA-MB-231 [2]; read-out: pLC50 (converted)): > 100 µM
TGI (MDA-MB-231 [2]; read-out: pTGI (converted)): 44.7 µM
growth at 0.1 µM (SF-268): 30%
growth at 0.01 µM (BT-549): 4%
GI50 (UO-31 [3]; read-out: GI50): < 0.01 µM
CC50 (UO-31 [3]; [9]): > 100 µM
TGI (UO-31 [3]; read-out: TGI): 17.3 µM
GI50 (UO-31 [3]; read-out: pGI50 (converted)): < 0.01 µM
CC50 (UO-31 [3]; [10]): > 100 µM
TGI (UO-31 [3]; read-out: pTGI (converted)): 17.4 µM
growth at 1 µM (RXF 393): 6%
growth at 0.1 µM (OVCAR-4): 44%
growth at 1 µM (SR): 16%
growth at 100 µM (UO-31 [4]): -43%
growth at 0.01 µM (HCT-116): 7%
growth at 0.1 µM (HT-29): 2%
growth at 100 µM (COLO 205 [5]): -71%
growth at 100 µM (ACHN): -29%
GI50 (SF-295; read-out: GI50): < 0.01 µM
CC50 (SF-295; [9]): 64.5 µM
TGI (SF-295; read-out: TGI): 3.21 µM
GI50 (SF-295; read-out: pGI50 (converted)): < 0.01 µM
CC50 (SF-295; [10]): 64.6 µM
TGI (SF-295; read-out: pTGI (converted)): 3.24 µM
growth at 10 µM (MDA-MB-231 [6]): 33%
growth at 0.1 µM (SK-MEL-2): 40%
growth at 0.1 µM (UO-31 [7]): 30%
growth at 0.1 µM (SK-MEL-5): -26%
growth at 100 µM (OVCAR-8): -38%
growth at 100 µM (HCT-15): -41%
IC50 (COLO 205 [8]): 0.007 µM
